# Experiments:
# [1] = test system: human umbilical vein endothelial cells (HUVEC); test: differentiation of human umbilical vein endothelial cells (HUVEC); format: cell-based; details: for differentiation of HUVEC, dose dependence: versus vehicle treated cells (proliferation, no differentiation)
# Excerpt: FIG. 2. illustrates a series of micrographs showing differentiation of vessel endothelial cells (HUVEC) induced by angioenhancin compounds of formula I and II. Panels a & b represent the vehicle treated cells showing proliferation but no sign of differentiation.
# [2] = test system: ischemic zone of myocardium; test: subclinical chronic coronary heart disease (cCHD) rat model (partial LAD ligation), neovascularization in ischemic zone; format: in vivo, Sprague-Dawley (SD) rats; details: for vascular density in treated ischemic hearts versus vehicle-treated hearts (FIG. 4): 2 weeks post ligation; for chronic ischemic heart histology, 2 weeks post LAD partial ligation (FIG. 4): compared with vehicle-treated hearts (C1)
# Experimental: (§1) The subclinical cCHD rat model was produced as described. Briefly, male Sprague-Dawley (SD) rats, weighing 150-200 g, were used. Following proper anesthesia, left thoracotomy was performed on the animals. The pericardium was opened and a probe or surgical suture thread (11-0) was placed onto the epicardium along the LAD. […] The experimental rats with ST segment constantly depressed above 0.1 mV were selected and randomly divided into two groups. […] The rats in vehicle-treated group (n=6) were treated with equivalent period and amount of H2O. For the sham operation group (n=6), left thoracotomy was performed and the pericardium was opened but with no LAD ligation.
# Measurement of neovascularization in the ischemic zone. Left ventricles from the rats sacrificed on day 14 post-ligation were removed and sliced from apex to base in 3 transverse slices. The slices were fixed in formalin and embedded in paraffin. Vascular density was determined on the histology section samples by counting the number of vessels within the ischemic zone using a light microscope under a high power field (HPF) (40×). Eight random and non-overlapping HPFs within the ischemic field were used for counting all the vessels in each section. The number of vessels in each HPF was averaged and expressed as the number of vessels per HPF. Vascular counts were performed by two investigators in a blind fashion.
# The capillary density in the ischemic zone of the angioenhancin treated myocardium was on average 12 capillaries (12±3.8) filled with blood cells per HPF, calculated from 8 randomly selected view fields on each of the 3 slides from 6 angioenhancin treated hearts on day 14.
# [3] = test system: VEGF, VEGFR, EGF and FGF; test: RT-PCR of angiogenesis-associated genes in treated heart tissues and endothelial cells; format: in vivo
# [4] = test system: ischemic hearts; test: echocardiography assessment of heart function in cCHD rats; format: in vivo, SD rats; details: 5 mg/kg, echocardiography day 2, 7 and 14, progressively lowered in vehicle treated rats
# Experimental: as §1
# Echocardiography Assessment of Heart Function. In all, 12 SD rats received baseline echocardiography before any experimental procedures. Echocardiography was recorded under controlled anesthesia using a Toshiba Aplio XG Echocardiography with PLT-1202S linear array transducer S10-MHz phased-array transducer. M-mode tracing and 2-dimensional (2D) echocardiography images were recorded from the parasternal long- and short-axis views. Short axis view was at the papillary muscles level. Left ventricular end-systolic and end-diastolic dimensions, as well as systolic and diastolic wall thickness, were measured from the M-mode tracings by using the leading-edge convention of the American Society of Echocardiography. For each M-mode measurement, at least three consecutive cardiac cycles were sampled. All rats in both groups received echocardiography measurements on day 2, 7 and 14 post ligation.
# [5] = test system: infarcted hearts; test: myocardial infarction rat model (permanent LAD ligation), neovascularization in infarct zone; format: in vivo, Sprague-Dawley rats; details: vehicle-treated: mainly fibrosis
# Experimental: Myocardial infarction (MI) animal model was induced in male Sprague-Dawley rats (300-350 g) by permanent ligation of the left anterior descending (LAD) coronary artery. The experimental rats were anesthetized with intraperitoneal pentobarbital (50 mg/kg), intubated, and mechanically ventilated with room air. The angioenhancin compound of formula I or formula II (2 mg/kg), dissolved in water (0.5 ml), was orally administrated to MI rats (n=6) for one day post ligation, daily for two weeks with equivalent amount of water to the vehicle-treated rats (n=6). For sham-operated rats (n=5), thoracotomy was performed without ligation. Animals were sacrificed after final echocardiography measurements.
# Evaluation of neovascularization in infarcted hearts. Echocardiography was recorded on day 7 and 14 post operations. The hearts of the sacrificed rats were removed and washed with PBS. For histological studies, the left ventricles of the experimental rats were removed and cut from apex-to-base in 3 transverse slices and embedded in paraffin. To quantify the density of capillaries in infarct zones, the vessels were counted and averaged in 6 randomly selected high power view fields (HPF, 40×) on each section. Blinded capillary counts were performed on 6 hearts per group by two investigators. The results were expressed as mean±SD capillaries per HPF.
# [6] = test system: human aorta endothelial cells (HAEC); test: capillary-like tube formation of human aorta endothelial cells on fibrin matrix; details: for Approx. No. of Tubes: HAEC on fibrin matrix, Ctrl 9; for Approx. No. of Tubes / capillary-like networks compared to vehicle-treated cells: 22 hours; for capillary-like networks compared to vehicle-treated cells: HAEC
# Experimental: Cells were incubated at 37° C. and equilibrated in 95% air-5% CO2. Fibrin matrices were prepared by polymerization of fibrinogen solution (5 mg fibrinogen/ml serum-free medium) using low concentrations of α-thrombin (2.5 U/ml). After polymerization, gels were soaked in culture medium containing 10% FBS for 2 h at 37° C. to inactivate the thrombin. HAEC were seeded on the surface of the three-dimensional matrix in 96-well plates in Ham's F-12 medium and cultured for 22 hours with different concentrations of angioenhancin compounds of formula I and formula II in a growth medium. Non-treated control was added with equivalent amount of growth medium. Images were captured and the angiogenic properties were determined by calculating the total number of tubes formed.
molecule,measurement,setting,value
pedunculagin [Formula I],"differentiation of HUVEC (cell phenotype, FIG. 2)",[1]; 20 μg/ml,enhanced differentiation showing thin and elongated cells
same,"differentiation of HUVEC (cell phenotype, FIG. 2)",[1]; 40 μg/ml,thin and elongated phenotype forming tube-like structures
same,"differentiation of HUVEC, dose dependence",[1],enhanced differentiation of HUVEC in a dose dependent manner
same,vascular density in treated ischemic hearts versus vehicle-treated hearts (FIG. 4),[2],higher
same,"chronic ischemic heart histology, 2 weeks post LAD partial ligation (FIG. 4)",[2],more blood vessels
same,"expressions of angiogenesis-associated genes (VEGF, VEGFR, EGF and FGF), RT-PCR",[3],up-regulated
same,left ventricle ejection fraction (LVEF),[4],progressively restored
same,left ventricle fraction shortening (LVFS),[4],progressively restored
same,"infarcted region histology, 2 weeks post LAD ligation (FIG. 4)",[5],Many newly formed collateral vessels filled with red blood cells were found
same,Approx. No. of Tubes,[6]; 5 μg/ml,~45
same,growth of capillary-like tube structures versus non-treated control (FIG. 3),"[6]; 5 μg/ml, HAEC passage 7, 22 hours",enhanced growth of capillary-like tube structures much more than that in non-treated control
same,Approx. No. of Tubes,[6]; 10 μg/ml,~57
same,Approx. No. of Tubes,[6]; 20 μg/ml,~68
same,capillary-like networks compared to vehicle-treated cells,[6],formed more capillary-like networks
"O=C(OC1OC2COC(=O)c3cc(O)c(O)c(O)c3-c3c(cc(O)c(O)c3O)C(=O)OC2C2OC(=O)c3cc(O)c(O)c(O)c3-c3c(cc(O)c(O)c3O)C(=O)OC12)c1cc(O)c(O)c(O)c1 (centres unmarked) [Formula II, Potentillin]","differentiation of HUVEC (cell phenotype, FIG. 2)",[1]; 10 μg/ml,refractive and elongated cells
same,"differentiation of HUVEC (cell phenotype, FIG. 2)",[1]; 20 μg/ml,thin and elongated phenotype with the typical characteristic of differentiation of vessel endothelial cells
same,"differentiation of HUVEC (cell phenotype, FIG. 2)",[1]; 40 μg/ml,"thin, elongated and circled phenotype forming tube-like structures"
same,"differentiation of HUVEC, dose dependence",[1],enhanced differentiation of HUVEC in a dose dependent manner
same,vascular density in treated ischemic hearts versus vehicle-treated hearts (FIG. 4),[2],higher
same,"chronic ischemic heart histology, 2 weeks post LAD partial ligation (FIG. 4)",[2],more blood vessels
same,"expressions of angiogenesis-associated genes (VEGF, VEGFR, EGF and FGF), RT-PCR",[3],up-regulated
same,left ventricle ejection fraction (LVEF),[4],progressively restored
same,left ventricle fraction shortening (LVFS),[4],progressively restored
same,"infarcted region histology, 2 weeks post LAD ligation (FIG. 4)",[5],many newly formed vessels filled with red blood cells observed
same,Approx. No. of Tubes,[6]; 5 μg/ml,~67
same,Approx. No. of Tubes,[6]; 10 μg/ml,~46
same,Approx. No. of Tubes,[6]; 20 μg/ml,~45
same,growth of capillary-like tubes versus non-treated control (FIG. 3),"[6]; HAEC passage 7, 22 hours, concentration not given","enhanced growth of capillary-like tubes more than that in non-treated control, but less than that in angioenhancin-I treated"
same,capillary-like networks compared to vehicle-treated cells,[6],formed more capillary-like networks

# From patent US20120077761A1, “COMPOSITIONS AND METHODS FOR THE PREVENTION AND TREATMENT OF CORONARY HEART DISEASES” (Generex Pharmaceuticals, Inc, priority 2009, published 2012)
